Patent US10787442B2, “Modulators of indoleamine 2,3-dioxygenase” (GLAXOSMITHKLINE INTELLECTUAL PROPERTY DEVELOPMENT LIMITED, priority 2016, dated 2020)

Tested on: human peripheral blood mononuclear cells (PBMC)
Assay: PBMC cytotoxicity assay (CellTiter-Glo)
Type: cell-based
Details: cytotoxicity in stimulated PBMC, recorded as pCC50
Method: Compounds of the present invention were tested via high-throughput cellular assays utilizing detection of kynurenine via mass spectrometry and cytotoxicity as end-points. […] Compounds with IDO1 inhibitory properties decreased the amount of kynurenine produced by the cells via the tryptophan catabolic pathway. Cellular toxicity due to the effect of compound treatment was measured using CellTiter-Glo® reagent (CTG) (Promega Corporation, Madison, Wis.), which is based on luminescent detection of ATP, an indicator of metabolically active cells.
In preparation for the assays, test compounds were serially diluted 3-fold in DMSO from a typical top concentration of 1 mM or 5 mM and plated at 0.5 μL in 384-well, polystyrene, clear bottom, tissue culture treated plates with lids (Greiner Bio-One, Kremsmünster, Austria) to generate 11-point dose response curves. Low control wells (0% kynurenine or 100% cytotoxicity) contained either 0.5 μL of DMSO in the presence of unstimulated (−IFN-γ/−LPS) PBMCs for the mass spectrometry assay or 0.5 μL of DMSO in the absence of cells for the cytotoxicity assay, and high control wells (100% kynurenine or 0% cytotoxicity) contained 0.5 μL of DMSO in the presence of stimulated (+IFN-γ/+LPS) PBMCs for both the mass spectrometry and cytotoxicity assays.
Frozen stocks of PBMCs were washed and recovered in RPMI 1640 medium (Thermo Fisher Scientific, Inc., Waltham, Mass.) supplemented with 10% v/v heat-inactivated fetal bovine serum (FBS) (Thermo Fisher Scientific, Inc., Waltham, Mass.), and 1× penicillin-streptomycin antibiotic solution (Thermo Fisher Scientific, Inc., Waltham, Mass.). The cells were diluted to 1,000,000 cells/mL in the supplemented RPMI 1640 medium. 50 μL of either the cell suspension, for the mass spectrometry assay, or medium alone, for the cytotoxicity assay, were added to the low control wells, on the previously prepared 384-well compound plates, resulting in 50,000 cells/well or 0 cells/well respectively. IFN-γ and LPS were added to the remaining cell suspension at final concentrations of 100 ng/ml and 50 ng/ml respectively, and 50 μL of the stimulated cells were added to all remaining wells on the 384-well compound plates. The plates, with lids, were then placed in a 37° C., 5% CO2 humidified incubator for 2 days.
Following incubation, the 384-well plates were removed from the incubator and allowed to equilibrate to room temperature for 30 minutes. For the cytotoxicity assay, CellTiter-Glo® was prepared according to the manufacturer's instructions, and 40 μL were added to each plate well. After a twenty minute incubation at room temperature, luminescence was read on an EnVision® Multilabel Reader (PerkinElmer Inc., Waltham, Mass.). For the mass spectrometry assay, 10 μL of supernatant from each well of the compound-treated plates were added to 40 μL of acetonitrile, containing 10 μM of an internal standard for normalization, in 384-well, polypropylene, V-bottom plates (Greiner Bio-One, Kremsmünster, Austria) to extract the organic analytes. Following centrifugation at 2000 rpm for 10 minutes, 10 μL from each well of the acetonitrile extraction plates were added to 90 μL of sterile, distilled H2O in 384-well, polypropylene, V-bottom plates for analysis of kynurenine and the internal standard on the RapidFire 300 (Agilent Technologies, Santa Clara, Calif.) and 4000 QTRAP MS (SCIEX, Framingham, Mass.). MS data were integrated using Agilent Technologies' RapidFire Integrator software, and data were normalized for analysis as a ratio of kynurenine to the internal standard.

SMILES | PBMC_TOX PXC50
CC(C)CN(c1ncc([C@H](C)CC(=O)O)cc1Nc1n[nH]c(C(F)(F)F)n1)C1CCOCC1 [Example 42, (3R)-3-{6-[(2-methylpropyl)(oxan-4-yl)amino]-5-{[5-(trifluoromethyl)-1H-1,2,4-triazol-3-yl]amino}pyridin-3-yl}butanoic acid] | <5.0
CC(C)CN(c1ncc([C@H](C)CC(=O)O)cc1Nc1n[nH]c(C#N)n1)C1CCOCC1 [Example 43, (3R)-3-{5-[(5-cyano-1H-1,2,4-triazol-3-yl)amino]-6-[(2-methylpropyl)(oxan-4-yl)amino]pyridin-3-yl}butanoic acid] | <5.0
CC(C)CN(c1ncc([C@H](C)CC(=O)O)cc1Nc1n[nH]c(C(N)=O)n1)C1CCOCC1 [Example 44, (3R)-3-{5-[(5-carbamoyl-1H-1,2,4-triazol-3-yl)amino]-6-[(2-methylpropyl)(oxan-4-yl)amino]pyridin-3-yl}butanoic acid] | <5.0
Cc1nnc(Nc2cc([C@H](C)CC(=O)O)cnc2N(CC(C)C)C2CCCCC2)s1 [Example 45, (3R)-3-{6-[cyclohexyl(2-methylpropyl)amino]-5-[(5-methyl-1,3,4-thiadiazol-2-yl)amino]pyridin-3-yl}butanoic acid] | <5.0
COC1CCC(N(CC(C)C)c2ncc(C(C)CC(=O)O)cc2Nc2nc(Cl)ns2)CC1 (stereo not drawn) [Example 46, (3RS)-3-{5-[(3-chloro-1,2,4-thiadiazol-5-yl)amino]-6-[(2-methylpropyl)[(1rs&,4rs&)-4-methoxycyclohexyl]amino]pyridin-3-yl}butanoic acid] | <5.0
COCc1ccc(Nc2cc(C(C)CC(=O)O)cnc2N(CC(C)C)C2CCC(OC)CC2)nc1 (stereo not drawn) [Example 47, (3RS)-3-(5-{[5-(methoxymethyl)pyridin-2-yl]amino}-6-[(2-methylpropyl)[(1rs&,4rs&)-4-methoxycyclohexyl]amino]pyridin-3-yl)butanoic acid] | <5.0
CC(C)CN(c1ncc([C@H](C)CC(=O)O)cc1Nc1nc(C(F)(F)F)c[nH]1)C1CCOCC1 [Example 48, (3R)-3-{6-[(2-methylpropyl)(oxan-4-yl)amino]-5-{[4-(trifluoromethyl)-1H-imidazol-2-yl]amino}pyridin-3-yl}butanoic acid] | <5.0
COCc1nnc(Nc2cc([C@H](C)CC(=O)O)cnc2N(CC(C)C)C2CCOCC2)s1 [Example 49, (3R)-3-(5-{[5-(methoxymethyl)-1,3,4-thiadiazol-2-yl]amino}-6-[(2-methylpropyl)(oxan-4-yl)amino]pyridin-3-yl)butanoic acid] | <5.0
COC(=O)c1c[nH]c(Nc2cc([C@H](C)CC(=O)O)cnc2N(CC(C)C)C2CCOCC2)n1 [Example 50, (3R)-3-(5-{[4-(methoxycarbonyl)-1H-imidazol-2-yl]amino}-6-[(2-methylpropyl)(oxan-4-yl)amino]pyridin-3-yl)butanoic acid] | <5.0
CC(C)CN(CC(C)C)c1ncc([C@H](C)CC(=O)O)cc1Nc1nnc(C(F)(F)F)s1 [Example 51, (3R)-3-{6-[bis(2-methylpropyl)amino]-5-{[5-(trifluoromethyl)-1,3,4-thiadiazol-2-yl]amino}pyridin-3-yl}butanoic acid] | <5.0
CC(C)CN(c1ncc([C@H](C)CC(=O)O)cc1Nc1ccc(C(F)(F)F)cn1)C1CCOCC1 [Example 52, (3R)-3-{6-[(2-methylpropyl)(oxan-4-yl)amino]-5-{[5-(trifluoromethyl)pyridin-2-yl]amino}pyridin-3-yl}butanoic acid] | <5.0
COC1CCC(N(CC(C)C)c2ncc(C(C)CC(=O)O)cc2Nc2ccc(C#N)cn2)CC1 (stereo not drawn) [Example 53, (3RS)-3-{5-[(5-cyanopyridin-2-yl)amino]-6-[(2-methylpropyl)[(1rs&,4rs&)-4-methoxycyclohexyl]amino]pyridin-3-yl}butanoic acid] | <5.0
CC(C)CN(CC(C)C)c1ncc([C@H](C)CC(=O)O)cc1Nc1nc(C(C)C)ns1 [Example 54, (3R)-3-{6-[bis(2-methylpropyl)amino]-5-{[3-(propan-2-yl)-1,2,4-thiadiazol-5-yl]amino}pyridin-3-yl}butanoic acid] | <5.0
Cc1ccc(CC(=O)Nc2cc([C@H](C)CC(=O)O)cnc2N(CC(C)C)C2CC3(C2)CN(C(=O)OC(C)(C)C)C3)cc1 [Example 55, (3R)-3-[6-({2-[(tert-butoxy)carbonyl]-2-azaspiro[3.3]heptan-6-yl}(2-methylpropyl)amino)-5-[2-(4-methylphenyl)acetamido]pyridin-3-yl]butanoic acid] | <5.0
COCc1nsc(Nc2cc([C@H](C)CC(=O)O)cnc2N(CC(C)C)C2CCOCC2)n1 [Example 56, (3R)-3-(5-{[3-(methoxymethyl)-1,2,4-thiadiazol-5-yl]amino}-6-[(2-methylpropyl)(oxan-4-yl)amino]pyridin-3-yl)butanoic acid] | <5.0
COCc1ccc(Nc2cc([C@H](C)CC(=O)O)cnc2N(CC(C)C)[C@H]2CC[C@@H](OC)CC2)nc1 [Example 58, (3R)-3-(5-{[5-(methoxymethyl)pyridin-2-yl]amino}-6-[(2-methylpropyl)[(1s,4s)-4-methoxycyclohexyl]amino]pyridin-3-yl)butanoic acid] | <5.0
CC(C)CN(c1ncc(C(C)CC(=O)O)cc1Nc1nc(C(F)(F)F)ns1)C1CCC(O)CC1 (stereo not drawn) [Example 59, (3RS)-3-{6-[(2-methylpropyl)[(1rs&,4rs&)-4-hydroxycyclohexyl]amino]-5-{[3-(trifluoromethyl)-1,2,4-thiadiazol-5-yl]amino}pyridin-3-yl}butanoic acid] | <5.0
CC(C)CN(c1ncc([C@H](C)CC(=O)O)cc1Nc1ccc(Cl)nn1)C1CCOCC1 [Example 60, (3R)-3-{5-[(6-chloropyridazin-3-yl)amino]-6-[(2-methylpropyl)(oxan-4-yl)amino]pyridin-3-yl}butanoic acid] | <5.0
Cc1cc(NC(=O)Nc2cc([C@H](C)CC(=O)O)cnc2N(CC(C)C)C2CC3(C2)CN(C(=O)OC(C)(C)C)C3)on1 [Example 61, (3R)-3-[6-({2-[(tert-butoxy)carbonyl]-2-azaspiro[3.3]heptan-6-yl}(2-methylpropyl)amino)-5-{[(3-methyl-1,2-oxazol-5-yl)carbamoyl]amino}pyridin-3-yl]butanoic acid] | <5.0
CC(C)CN(c1ncc([C@H](C)CC(=O)O)cc1Nc1ccc(C#N)nc1)C1CCOCC1 [Example 62, (3R)-3-{5-[(6-cyanopyridin-3-yl)amino]-6-[(2-methylpropyl)(oxan-4-yl)amino]pyridin-3-yl}butanoic acid] | <5.0
CC(C)CN(c1ncc([C@H](C)CC(=O)O)cc1Nc1nnc(C(N)=O)s1)C1CCCCC1 [Example 63, (3R)-3-{5-[(5-carbamoyl-1,3,4-thiadiazol-2-yl)amino]-6-[cyclohexyl(2-methylpropyl)amino]pyridin-3-yl}butanoic acid] | <5.0
